Assay results published in patent US20130064878A1, “WOUND HEALING COMPOSITIONS AND METHODS” (UNIVERSITY OF NOTRE DAME DU LAC, priority 2011, published 2013).

What was measured:
[1] = tested on: gelatinase activity in wound tissues of diabetic mice; assay: In-situ gelatin zymography with DQ-gelatin (Example 5); type: in vivo, mouse; details: db/db mice; compared to vehicle
Procedure: (§1) Fresh wound tissue was cut, embedded in OCT compound, and cryosectioned at a thickness of 12-μm in preparation for hematoxylin-eosin (H&E) staining. Morphological assessment of re-epithelialization was performed on a Nikon Eclipse 90i Fluorescent Microscope (Nikon Instruments Inc., Melville, N.Y., USA) (Tkalcevic et al., Toxicol. Pathol. 37 (2), 183-192 (2009)). In situ gelatin zymography was performed as described (Oh et al., J. Neurosci. 19 (19), 8464-8475 (1999)). Briefly, unfixed cryostat sections (12-μm-thick) of wound tissues were incubated in a reaction buffer (50 mM TBS pH 7.6) containing DQ-gelatin conjugate (Molecular Probes, Eugene, Oreg., USA) at 37° C. for 6 h. After fixation in 4% paraformaldehyde in PBS, cells were counterstained with DAPI (Molecular Probes, Eugene, Oreg., USA) and the images were visualized by fluorescence microscopy.

[2] = tested on: wounds of female wild-type mice; assay: Excisional wound model, single 8-mm wound, topical treatment, wild-type mice; type: in vivo, mouse
Excerpt: (§2) Single excisional wounds 8-mm in diameter were made with a biopsy punch (Miltex, York, Pa., USA) using aseptic technique in the shaved dorsal regions of female diabetic db/db mice and female wild-type mice under isoflurane anesthesia. […] Wounds were photographed and immediately covered with a sterile dressing (3M Tegaderm™ Transparent Dressing, Butler Schein Animal Health, Inc., Dublin, Ohio). Cellulose acetate collars were made in-house from expired films and mounted on the wild-type mice to prevent them from disturbing the wounds on their back. […] On days 1, 3, 7, 10, and 14, digital photographs of wounds were taken while animals were under isoflurane anesthesia. […] The wounds with minimal surrounding healthy tissue were excised and either flash-frozen in liquid nitrogen for protein expression profiling or embedded in optimal cutting temperature (OCT) compound (Tissue-Tek, Torrance, Calif., USA) followed by cryosectioning for histological assessment.
(§3) Digital images were analyzed for wound areas using the NIH ImageJ version 1.45 software. Photographs of each wound were taken using a digital camera (Olympus SP-800UZ, Center Valley, Pa., USA), which was statically mounted on a tripod at a fixed distance above the mouse wound. A ruler was included in the photographic frame to allow ImageJ calibration. The wound outline was defined from the photographic image and the ImageJ software calculated the wound area. Wound closure was expressed as the change in wound area relative to that from day 0.
(§4) Wound closures are expressed as mean±SD (n=35 on day 1; n=28 on day 3; n=21 on day 7; n=14 on day 10; n=7 on day 14). Wound closures and levels of MMP-8 and MMP-9 were analyzed using a paired Student t-test; p<0.05 was considered statistically significant.
as §1

[3] = tested on: wounds of female diabetic db/db mice; assay: Excisional diabetic wound model, single 8-mm wound, topical treatment; type: in vivo, mouse
Excerpt: as §2, §3, §4, §1

[4] = tested on: skin punch biopsy lesions of female diabetic mice (db/db mice); assay: Chronic wound model, two 6-mm skin punch biopsy lesions, topical treatment; type: in vivo, mouse
Procedure: Female diabetic mice (db/db mice, 9-10 weeks old, Jackson Laboratory, Bar Harbour, Me.) (n=10 per group) were prepared for aseptic surgery by clipping the hair on the dorsal thorax and scrubbing the skin with betadine followed by alcohol. […] Each wound was covered with an occlusive dressing following biopsy. The mice recovered on a cage with clean bedding on a heating pad. Mice received buprenorphine subcutaneously (1.5-2.5 mg/kg) at the conclusion of surgery and again 3-5 hours later. Mice were administered 0.5 mL of warm sterile saline intraperitoneally at the conclusion of surgery. […] Wound closure was determined every day for each animal using the initial and final wound diameters, with the percentage wound closure calculated as [(initial−final)/initial]×100.
On day 12, half of the mice (n=10) were sacrificed and the wounds of each animal excised. The remaining mice continued treatment at the dosages provided above once a day until day 23, when they were sacrificed On the day of sacrifice, the wounds of each mouse were excised, and analyzed by histology, gelatin zymography and Western blot, and in situ gelatin zymography.
Female diabetic mice (db/db mice; 9-10 weeks old, Jackson Laboratory, Bar Harbour, Me.) (n=10 per group) were prepared for aseptic surgery by clipping the hair on the dorsal thorax and scrubbing the skin with betadine followed by alcohol. […] Each wound was covered with an occlusive dressing following biopsy. The mice recovered on a cage with clean bedding on a heating pad. Mice received buprenorphine subcutaneously (1.5-2.5 mg/kg) at the conclusion of surgery and again 3-5 hours later. Mice were administered 0.5 mL of warm sterile saline intraperitoneally at the conclusion of surgery. […] Wound closure was determined every day for each animal using the initial and final wound diameters, with the percentage wound closure calculated as [(initial−final)/initial]×100.
Female diabetic mice (db/db mice) (n=10 mice per group, n=2 wounds per mouse, 9-10 weeks old, Jackson Laboratory, Bar Harbour, Me.) were prepared for aseptic surgery by clipping the hair on the dorsal thorax and scrubbing the skin with betadine followed by alcohol. […] Each wound was covered with an occlusive dressing following biopsy. The mice recovered on a cage with clean bedding on a heating pad. Mice received buprenorphine subcutaneously (1.5-2.5 mg/kg) at the conclusion of surgery and again 3-5 hours later. Mice were administered 0.5 mL of warm sterile saline intraperitoneally at the conclusion of surgery. […] Wound closure was determined every day for each animal using the initial and final wound diameters, with the percentage wound closure calculated as [(initial−final)/initial]×100.

[5] = tested on: animal models of cancer metastasis, stroke, hemorrhage, spinal cord and brain injury; details: prostate, breast cancer and T-cell lymphoma metastasis, ischemic stroke, subarachnoid hemorrhage, traumatic brain injury, testosterone-induced neurogenesis; cited from earlier work
[6] = tested on: wound gelatinolytic activity; assay: In situ gelatin zymography of wound tissue (Example 3); type: in vivo, mouse; details: day 13; 0.25 mg/wound; compared to vehicle
Procedure: On day 7, half of the mice (n=10) were sacrificed and the wounds of each animal excised. […] On the day of sacrifice, the wounds of each mouse were excised, and analyzed by histology, gelatin zymography and Western blot, and in situ gelatin zymography. Specifically, one wound from each sacrificed animal was analyzed by in situ gelatin zymography, and one wound from each sacrificed animal was analyzed by gelatin zymography, followed by Western blot.
FIG. 2(A) is a graph of the wound closure measurements, determined every day of the study as [(initial−final)/initial]×100. […] FIG. 2(C) is a photograph of a representative skin lesion of a mouse treated with saline on day 13. […] Wound gelatinolytic activity is visualized using fluorescein isothiocyanate (FITC)-labeled substrate (right images), and 4′,6-diamidino-2-phenylindole (DAPI)-labeled […] (left images). […] Thus, gelatinolytic activity was suppressed in the gelatinase inhibitor-treated group (FIG. 2 (D)).

Nc1ccc(Oc2ccc(S(=O)(=O)CC3CS3)cc2)cc1 (stereo not shown) [ND-322]
gelatinase activity in wound tissues (in-situ zymography) [1]: significantly decreased
effect on wound healing compared to vehicle ([2]; 0.25 mg/wound/day topical, p>0.25): did not accelerate healing
wound closure ([2]; day 7, 0.25 mg/wound/day topical, n=21): 62±19%
wound closure ([2]; day 10, 0.25 mg/wound/day topical, n=14): 82±11%
re-epithelialization (H&E staining) ([2]; day 14): completely re-epithelialized
wound closure ([2]; day 14, 0.25 mg/wound/day topical, n=7): 96±4%
effect on wound healing compared to vehicle ([3]; 0.25 mg/wound/day topical): accelerated wound healing
wound closure ([3]; day 10, 0.25 mg/wound/day topical, n=14, p<0.05 vs vehicle): 70±16%
re-epithelialization (H&E staining) ([3]; day 14): complete re-epithelialization
wound closure ([3]; day 14, 0.25 mg/wound/day topical, n=7, p<0.01 vs vehicle): 92±4%
difference in wound closure vs vehicle ([3]; days 1, 3, and 7, p>0.2): not statistically significant

O=S(=O)(CC1CS1)c1ccc(Oc2ccccc2)cc1 (stereo not shown) [SB-3CT, 2-(((4-phenoxyphenyl)sulfonyl)methyl)thiirane]
wound closure ([4]; at 13-14 days, SB-3CT-treated db/db mice (0.25 or 1.25 mg/wound per day)): > 90%
wound closure ([4]; day 6, 0.25 mg/wound per day topical, vehicle DMSO, db/db mice): 49.6±14.0%
wound closure ([4]; day 6, 1.25 mg/wound per day topical, vehicle DMSO, db/db mice): 50.0±7.4%
difference in wound closure between vehicle and treated mice ([4]; starting on day 2, db/db mice, Example 1): Significant differences (p<0.05)
efficacy in animal models [5]: effective

Nc1ccc(Oc2ccc(S(=O)(=O)CC3CS3)cc2)cc1 (stereo not shown) [p-amino SB-3CT]
difference in wound healing between treated and vehicle groups ([4]; Example 3, 0.25 mg/wound once per day, 13 days, vehicle saline): Significant differences in wound healing
wound closure ([4]; day 6, 0.25 mg/wound topical once per day, vehicle saline, db/db mice): 37.0±9.5%
wound gelatinolytic activity (in situ gelatin zymography) [6]: suppression of gelatinolytic activity
